The nature of series [1]: Dynamic vapor sorption / isothermal sorption (hygroscopicity). It is filed as physicochemical. Conditions: for weight change (isothermal sorption plot): between 0 to 80% RH; for weight change (DVS isothermal sorption plot): between 20 to 80% RH. As for the experimental part: Dynamic vapor sorption data and isothermal sorption data were collected on TA Instruments Q5000 TGA. Method: A sample of 1 to 10 mg was placed in a platinum pan; the weight change of the sample during the change in relative humidity from 0% to 80% to 0% was measured.

Series [2] can be described thus: Solid state stability experiment (XRD after storage at room temperature under dry condition). It is filed as physicochemical. Conditions: for 1 day test results (solid form by XRD): stored 1 day; for 10 days test results (solid form by XRD): stored 10 days. As for the experimental part:
X-ray powder diffraction (XRPD): performed on Bruder D8 Advance diffractometer. Samples were tested at room temperature. Testing conditions: […] 3-40°, step size 0.02°, and speed 0.2 s/step.
Solid state stability experiment: Placed 20 mg of each of lasmiditan amorphous form of preparation Example 1, lasmiditan hydrochloride amorphous of Preparation Example 2, lasmiditan Form 1, lasmiditan Form 2, lasmiditan Form 3, lasmiditan hydrochloride Form A, lasmiditan hydrochloride Form B, lasmiditan hydrochloride Form C, and lasmiditan hydrochloride Form E of the present invention at room temperature under dry condition, took the samples out and analyzed by XRD at the corresponding time, their XRD pattern are shown in FIGS. 16-18 and FIGS. 46-50.

Molecules are shown by their SMILES. Entries after “also recorded” stand apart in the source; their conditions may differ. Where a name gives a salt, the structure may show the parent alone.

On to `CN1CCC(C(=O)c2cccc(NC(=O)c3c(F)cc(F)cc3F)n2)CC1` [Lasmiditan Form 1, 2,4,6-trifluoro-N-[6-(1-methyl-piperidine-4-carbonyl)pyridin-2-yl]-benzamide], for which, in series [1], the “weight change (isothermal sorption plot)” value worked out at 0.1% and the “weight change (DVS isothermal sorption plot)” value stood at 0.1%. Besides, in series [2], the “1 day test results (solid form by XRD)” value was “Form 1” and the “10 days test results (solid form by XRD)” value was “Form 1”. Moreover, the “10 days test results (solid form by XRD)” value in series [2] (listed as lasmiditan Form 1) is recorded as “remained unchanged; also recorded: still remained their original forms”.

In the case of `CN1CCC(C(=O)c2cccc(NC(=O)c3c(F)cc(F)cc3F)n2)CC1` [Lasmiditan Form 2, 2,4,6-trifluoro-N-[6-(1-methyl-piperidine-4-carbonyl)pyridin-2-yl]-benzamide], in series [1], the “weight change (isothermal sorption plot)” value was 0.1% and the “weight change (DVS isothermal sorption plot)” value is 0.1%. Moreover, in series [2], the “1 day test results (solid form by XRD)” value is “Form 2” and the “10 days test results (solid form by XRD)” value is “Form 2”. For the same molecule, the “10 days test results (solid form by XRD)” value in series [2] (listed as lasmiditan Form 2) is given as “still remained their original forms; also recorded: remained unchanged”.

As to `CN1CCC(C(=O)c2cccc(NC(=O)c3c(F)cc(F)cc3F)n2)CC1` [Lasmiditan Form 3, 2,4,6-trifluoro-N-[6-(1-methyl-piperidine-4-carbonyl)pyridin-2-yl]-benzamide], the “weight change (isothermal sorption plot)” value in series [1] is listed as 0.7%. In series [2], the “1 day test results (solid form by XRD)” value was “Form 3” and the “10 days test results (solid form by XRD)” value is given as “Form 3”. Also, the “10 days test results (solid form by XRD)” value in series [2] (listed as lasmiditan Form 3) is listed as “still remained their original forms; also recorded: remained unchanged”.

In the case of `CN1CCC(C(=O)c2cccc(NC(=O)c3c(F)cc(F)cc3F)n2)CC1` [Lasmiditan amorphous form, 2,4,6-trifluoro-N-[6-(1-methyl-piperidine-4-carbonyl)pyridin-2-yl]-benzamide, reference compound], the “weight change (isothermal sorption plot)” value in series [1] and in series [1] (listed as Preparation Example 1) was 9.5% throughout. Besides, the “weight change (DVS isothermal sorption plot)” value in series [1] amounted to 9.5%. In series [2], the “1 day test results (solid form by XRD)” value is “began to crystallize”.

Take `CN1CCC(C(=O)c2cccc(NC(=O)c3c(F)cc(F)cc3F)n2)CC1` [Lasmiditan hydrochloride Form A, lasmiditan hydrochloride]: the “weight change (isothermal sorption plot)” value in series [1] (hydrochloride) is 0.1%. In addition, the “1 day test results (solid form by XRD)” value in series [2] (hydrochloride) is listed as “Form A”. Besides, the “10 days test results (solid form by XRD)” value is listed as “Form A” in series [2] (hydrochloride) and “remained unchanged; also recorded: still remained their original forms” in series [2] (listed as lasmiditan hydrochloride Form A, hydrochloride).

Turning to `CN1CCC(C(=O)c2cccc(NC(=O)c3c(F)cc(F)cc3F)n2)CC1` [Lasmiditan hydrochloride Form B, lasmiditan hydrochloride], in series [1] (hydrochloride), the “weight change (isothermal sorption plot)” value is listed as 4.2%. Moreover, in series [2] (hydrochloride), the “1 day test results (solid form by XRD)” value is on record as “Form B” and the “10 days test results (solid form by XRD)” value is given as “Form B”. For the same molecule, the “10 days test results (solid form by XRD)” value in series [2] (listed as lasmiditan hydrochloride Form B, hydrochloride) is listed as “remained unchanged; also recorded: still remained their original forms”.

Regarding `CN1CCC(C(=O)c2cccc(NC(=O)c3c(F)cc(F)cc3F)n2)CC1` [Lasmiditan hydrochloride Form C, lasmiditan hydrochloride], in series [1] (hydrochloride), the “weight change (isothermal sorption plot)” value worked out at 0.9%. In addition, in series [2] (hydrochloride), the “1 day test results (solid form by XRD)” value is reported as “Form C” and the “10 days test results (solid form by XRD)” value is on record as “Form C”. In addition, in series [2] (listed as lasmiditan hydrochloride Form C, hydrochloride), the “10 days test results (solid form by XRD)” value was “remained unchanged; also recorded: still remained their original forms”.

Take `CN1CCC(C(=O)c2cccc(NC(=O)c3c(F)cc(F)cc3F)n2)CC1` [Lasmiditan hydrochloride Form E, lasmiditan hydrochloride]: the “1 day test results (solid form by XRD)” value in series [2] (hydrochloride) is recorded as “Change to Form A”; in series [2] (listed as lasmiditan hydrochloride Form E, hydrochloride) it was “converted to Form A”.

With `CN1CCC(C(=O)c2cccc(NC(=O)c3c(F)cc(F)cc3F)n2)CC1` [Lasmiditan hydrochloride amorphous form, lasmiditan hydrochloride, reference compound], the “weight change (isothermal sorption plot)” value in series [1] (hydrochloride) is 8.1%; in series [1] (listed as Preparation Example 2, hydrochloride), 8.1%. Further, the “1 day test results (solid form by XRD)” value in series [2] (hydrochloride) is reported as “began to crystallize”.

(Values after patent US10669256B2, “Crystalline forms of lasmiditan, preparation methods, pharmaceutical compositions and uses thereof” (priority 2016, dated 2020).)
